Assay results from patent publication US8802597B2, “Herbicidal pyrimidines” (E I du Pont de Nemours and Company, priority 2003, dated 2014).

Tests used:
Format in all cases: in vivo
[1] = test system: water seeded rice seedlings (Oryza sativa cv. ‘Japonica-M202’); experiment: Test E flooded paddy water application; settings: Flood, 21 days, scale 0 to 100 (0 no effect, 100 complete control)
Summary of the method: (§1)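 Greenhouse pots of Tama silt loam with weeds and rice at 2.0–2.5-leaf stage, flooded to 3 cm; compounds applied directly into paddy water, depth maintained. Visual rating versus untreated controls after 21 days, 0 (no effect) to 100 (complete control); 29.5/26.7 °C, 16-h photoperiod.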

[2] = test system: ducksalad (Heteranthera limosa); experiment: Test E flooded paddy water application; settings: Flood, 21 days, scale 0 to 100 (0 no effect, 100 complete control)
Summary of the method: as §1

[3] = test system: barnyardgrass (Echinochloa crus-galli); experiment: Test E flooded paddy water application; settings: Flood, 21 days, scale 0 to 100 (0 no effect, 100 complete control)
Summary of the method: as §1

[4] = test system: junglerice (Echinochloa colona); experiment: Test E flooded paddy water application; settings: Flood, 21 days, scale 0 to 100 (0 no effect, 100 complete control)
Summary of the method: as §1

[5] = test system: late watergrass (Echinochloa oryzicola); experiment: Test E flooded paddy water application; settings: Flood, 21 days, scale 0 to 100 (0 no effect, 100 complete control)
Summary of the method: as §1

[6] = test system: rice flatsedge (Cyperus iria); experiment: Test E flooded paddy water application; settings: Flood, 21 days, scale 0 to 100 (0 no effect, 100 complete control)
Summary of the method: as §1

[7] = test system: transplanted rice seedlings (Oryza sativa cv. ‘Japonica-M202’); experiment: Test E flooded paddy water application; settings: Flood, 21 days, scale 0 to 100 (0 no effect, 100 complete control)
Summary of the method: as §1

[8] = test system: purple redstem (Ammannia coccinea); experiment: Test E flooded paddy water application; settings: Flood, 21 days, scale 0 to 100 (0 no effect, 100 complete control)
Summary of the method: as §1

[9] = test system: bearded (brdd.) sprangletop (Leptochloa fusca ssp. fascicularis); experiment: Test E flooded paddy water application; settings: Flood, 21 days, scale 0 to 100 (0 no effect, 100 complete control)
Summary of the method: as §1

[10] = test system: early watergrass (Echinochloa oryzoides); experiment: Test E flooded paddy water application; settings: Flood, 21 days, scale 0 to 100 (0 no effect, 100 complete control)
Summary of the method: as §1

[11] = test system: smallflower umbrella sedge (Cyperus difformis); experiment: Test E flooded paddy water application; settings: Flood, 21 days, scale 0 to 100 (0 no effect, 100 complete control)
Summary of the method: as §1

[12] = test system: giant foxtail (Setaria faberi); experiment: Test A pre/postemergence
Summary of the method: (§2)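 Pre/post greenhouse screen; loam/sand soil; solvent + surfactant formulation; pre = directed soil spray at planting, post = 1–2 leaf plants, 2–10 cm; ~10 d; visual 0–100 rating vs untreated.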

[13] = test system: barnyardgrass (Echinochloa crus-galli); experiment: Test A pre/postemergence
Summary of the method: as §2

[14] = test system: crabgrass (Digitaria sanguinalis); experiment: Test A pre/postemergence
Summary of the method: as §2

[15] = test system: redroot pigweed (Amaranthus retroflexus); experiment: Test A pre/postemergence
Summary of the method: as §2

[16] = test system: morningglory (Ipomoea spp.); experiment: Test A pre/postemergence
Summary of the method: as §2

[17] = test system: velvetleaf (Abutilon theophrasti); experiment: Test A pre/postemergence
Summary of the method: as §2

[18] = Postemergence, 125 g ai/ha, 0 to 100 scale (0 no effect, 100 complete control)
[19] = Postemergence, 500 g ai/ha, 0 to 100 scale (0 no effect, 100 complete control)
[20] = Preemergence, 125 g ai/ha, 0 to 100 scale where 0 is no effect and 100 is complete control, approximately ten days
[21] = Preemergence, 500 g ai/ha, 0 to 100 scale where 0 is no effect and 100 is complete control, approximately ten days

Compound: CCOC(=O)c1nc(-c2ccc(OC)cc2)nc(N)c1Cl [Compound 98]
- Rice, Water Seeded plant response rating ([1]; 32 g ai/ha): 0
- Rice, Water Seeded plant response rating ([1]; 64 g ai/ha): 0
- Rice, Water Seeded plant response rating ([1]; 125 g ai/ha): 0
- Rice, Water Seeded plant response rating ([1]; 250 g ai/ha): 0
- Plant response rating, Rice, Water Seeded ([1]; 16 g ai/ha): 0
- Ducksalad plant response rating ([2]; 32 g ai/ha): 100
- Ducksalad plant response rating ([2]; 64 g ai/ha): 100
- Ducksalad plant response rating ([2]; 125 g ai/ha): 100
- Ducksalad plant response rating ([2]; 250 g ai/ha): 100
- Plant response rating, Ducksalad ([2]; 16 g ai/ha): 0
- Barnyardgrass plant response rating ([3]; 32 g ai/ha): 0
- Barnyardgrass plant response rating ([3]; 64 g ai/ha): 0
- Barnyardgrass plant response rating ([3]; 125 g ai/ha): 0
- Barnyardgrass plant response rating ([3]; 250 g ai/ha): 0
- Plant response rating, Barnyardgrass ([3]; 16 g ai/ha): 0
- Junglerice plant response rating ([4]; 32 g ai/ha): 0
- Junglerice plant response rating ([4]; 64 g ai/ha): 0
- Junglerice plant response rating ([4]; 125 g ai/ha): 0
- Junglerice plant response rating ([4]; 250 g ai/ha): 0
- Plant response rating, Junglerice ([4]; 16 g ai/ha): 0
- Watergrass, Late plant response rating ([5]; 32 g ai/ha): 0
- Watergrass, Late plant response rating ([5]; 64 g ai/ha): 0
- Watergrass, Late plant response rating ([5]; 125 g ai/ha): 0
- Watergrass, Late plant response rating ([5]; 250 g ai/ha): 0
- Plant response rating, Watergrass, Late ([5]; 16 g ai/ha): 0
- Flatsedge, Rice plant response rating ([6]; 32 g ai/ha): 80
- Flatsedge, Rice plant response rating ([6]; 64 g ai/ha): 100
- Flatsedge, Rice plant response rating ([6]; 125 g ai/ha): 100
- Flatsedge, Rice plant response rating ([6]; 250 g ai/ha): 100
- Plant response rating, Flatsedge, Rice ([6]; 16 g ai/ha): 80
- Rice, Transplanted plant response rating ([7]; 32 g ai/ha): 0
- Rice, Transplanted plant response rating ([7]; 64 g ai/ha): 0
- Rice, Transplanted plant response rating ([7]; 125 g ai/ha): 0
- Rice, Transplanted plant response rating ([7]; 250 g ai/ha): 0
- Plant response rating, Rice, Transplanted ([7]; 16 g ai/ha): 0
- Redstem plant response rating ([8]; 32 g ai/ha): 0
- Redstem plant response rating ([8]; 64 g ai/ha): 0
- Redstem plant response rating ([8]; 125 g ai/ha): 40
- Redstem plant response rating ([8]; 250 g ai/ha): 40
- Plant response rating, Redstem ([8]; 16 g ai/ha): 0
- Sprangletop, Brdd. plant response rating ([9]; 32 g ai/ha): 0
- Sprangletop, Brdd. plant response rating ([9]; 64 g ai/ha): 0
- Sprangletop, Brdd. plant response rating ([9]; 125 g ai/ha): 0
- Sprangletop, Brdd. plant response rating ([9]; 250 g ai/ha): 0
- Plant response rating, Sprangletop, Brdd. ([9]; 16 g ai/ha): 0
- Watergrass, Early plant response rating ([10]; 32 g ai/ha): 0
- Watergrass, Early plant response rating ([10]; 64 g ai/ha): 0
- Watergrass, Early plant response rating ([10]; 125 g ai/ha): 0
- Watergrass, Early plant response rating ([10]; 250 g ai/ha): 0
- Plant response rating, Watergrass, Early ([10]; 16 g ai/ha): 0
- Sedge, Umbrella plant response rating ([11]; 32 g ai/ha): 60
- Sedge, Umbrella plant response rating ([11]; 64 g ai/ha): 60
- Sedge, Umbrella plant response rating ([11]; 125 g ai/ha): 60
- Sedge, Umbrella plant response rating ([11]; 250 g ai/ha): 60
- Plant response rating, Sedge, Umbrella ([11]; 16 g ai/ha): 60
- Plant response rating, Foxtail, Giant [12, 18]: 0
- Plant response rating, Foxtail, Giant [12, 19]: 15
- Plant response rating, Foxtail, Giant [12, 20]: 0
- Plant response rating, Foxtail, Giant [12, 21]: 0
- Plant response rating, Barnyardgrass [13, 18]: 0
- Plant response rating, Barnyardgrass [13, 19]: 20
- Plant response rating, Barnyardgrass [13, 20]: 0
- Plant response rating, Barnyardgrass [13, 21]: 0
- Plant response rating, Crabgrass [14, 18]: 0
- Plant response rating, Crabgrass [14, 19]: 10
- Plant response rating, Crabgrass [14, 20]: 0
- Plant response rating, Crabgrass [14, 21]: 15
- Plant response rating, Pigweed [15, 18]: 5
- Plant response rating, Pigweed [15, 19]: 15
- Plant response rating, Pigweed [15, 20]: 0
- Plant response rating, Pigweed [15, 21]: 0
- Plant response rating, Morningglory [16, 18]: 0
- Plant response rating, Morningglory [16, 19]: 0
- Plant response rating, Morningglory [16, 20]: 0
- Plant response rating, Morningglory [16, 21]: 0
- Plant response rating, Velvetleaf [17, 18]: 35
- Plant response rating, Velvetleaf [17, 19]: 45
- Plant response rating, Velvetleaf [17, 20]: 0
- Plant response rating, Velvetleaf [17, 21]: 5
